Measurements: patent US8741944B2, “Anti-infective agents against intracellular pathogens” (priority 2007, dated 2014)

Experiments:
LOX IMVI (Melanoma) = assay: NCI DTP tumor cell line screen (SRB), LOX IMVI
Description: (§1) For a typical screening experiment, cells are inoculated into 96 well microtiter plates in 100 μL at plating densities ranging from 5,000 to 40,000 cells/well depending on the doubling time of individual cell lines. After cell inoculation, the microtiter plates are incubated at 37° C., 5% CO2, 95% air and 100% relative humidity for 24 h prior to addition of experimental drugs.
(§2) After 24 h, two plates of each cell line are fixed in situ with TCA, to represent a measurement of the cell population for each cell line at the time of drug addition (Tz). Experimental drugs are solubilized in dimethyl sulfoxide at 400-fold the desired final maximum test concentration and stored frozen prior to use. At the time of drug addition, an aliquot of frozen concentrate is thawed and diluted to twice the desired final maximum test concentration with complete medium containing 50 μg/ml gentamicin. Additional four, 10-fold or ½ log serial dilutions are made to provide a total of five drug concentrations plus control. Aliquots of 100 μl of these different drug dilutions are added to the appropriate microtiter wells already containing 100 μl of medium, resulting in the required final drug concentrations.
(§3) Following drug addition, the plates are incubated for an additional 48 h at 37° C., 5% CO2, 95% air, and 100% relative humidity. For adherent cells, the assay is terminated by the addition of cold TCA. Cells are fixed in situ by the gentle addition of 50 μl of cold 50% (w/v) TCA (final concentration, 10% TCA) and incubated for 60 minutes at 4° C. The supernatant is discarded, and the plates are washed five times with tap water and air dried. Sulforhodamine B (SRB) solution (1001) at 0.4% (w/v) in 1% acetic acid is added to each well, and plates are incubated for 10 minutes at room temperature. After staining, unbound dye is removed by washing five times with 1% acetic acid and the plates are air dried. Bound stain is subsequently solubilized with 10 mM trizma base, and the absorbance is read on an automated plate reader at a wavelength of 515 nm. For suspension cells, the methodology is the same except that the assay is terminated by fixing settled cells at the bottom of the wells by gently adding 50 μl of 80% TCA (final concentration, 16% TCA). Using the seven absorbance measurements [time zero, (Tz), control growth, (C), and test growth in the presence of drug at the five concentration levels (Ti)], the percentage growth is calculated at each of the drug concentrations levels. Percentage growth inhibition is calculated as: [(Ti−Tz)/(C−Tz)]×100 for concentrations for which Ti>/=Tz [(Ti−Tz)/Tz]×100 for concentrations for which Ti<Tz
(§4) Three dose response parameters are calculated for each experimental agent. […] The drug concentration resulting in total growth inhibition (TGI) is calculated from Ti=Tz. […] Values are calculated for each of these three parameters if the level of activity is reached; however, if the effect is not reached or is exceeded, the value for that parameter is expressed as greater or less than the maximum or minimum concentration tested.

ACHN (Renal Cancer) = assay: NCI DTP tumor cell line screen (SRB), ACHN
Description: as §1, §2, §3, §4

DU-145 (Prostate Cancer) = assay: NCI DTP tumor cell line screen (SRB), DU-145
Description: as §1, §2, §3, §4

A498 (Renal Cancer) = assay: NCI DTP tumor cell line screen (SRB), A498
Description: as §1, §2, §3, §4

786-0 (Renal Cancer) = assay: NCI DTP tumor cell line screen (SRB), 786-0
Description: as §1, §2, §3, §4

SW-620 (Colon Cancer) = assay: NCI DTP tumor cell line screen (SRB), SW-620
Description: as §1, §2, §3, §4

UO-31 (Renal Cancer) = assay: NCI DTP tumor cell line screen (SRB), UO-31
Description: as §1, §2, §3, §4

MOLT-4 (Leukemia) = assay: NCI DTP tumor cell line screen (SRB), MOLT-4
Description: as §1, §2, §3, §4

NCC(=O)Nc1ccc(-n2nc(C(F)(F)F)cc2-c2ccc3c(ccc4ccccc43)c2)cc1 [Compound 70, 2-Amino-N-{4-[5-(2-phenanthrenyl)-3-(trifluoromethyl)-1H-pyrazol-1-yl]-phenyl}-acetamide]
TGI (LOX IMVI (Melanoma)): 3.07E−06
Mean Optical Densities (LOX IMVI (Melanoma); Log10 Concentration −4.0): 0.352
Mean Optical Densities (LOX IMVI (Melanoma); Log10 Concentration −5.0): 0.176
Percent Growth (LOX IMVI (Melanoma); Log10 Concentration −5.0): −50%
Mean Optical Densities (LOX IMVI (Melanoma); Log10 Concentration −6.0): 0.742
Percent Growth (LOX IMVI (Melanoma); Log10 Concentration −6.0): 48%
Mean Optical Densities (LOX IMVI (Melanoma); Log10 Concentration −7.0): 0.974
Percent Growth (LOX IMVI (Melanoma); Log10 Concentration −7.0): 76%
Mean Optical Densities (LOX IMVI (Melanoma); Log10 Concentration −8.0): 1.204
Percent Growth (LOX IMVI (Melanoma); Log10 Concentration −8.0): 105%
TGI (ACHN (Renal Cancer)): 3.45E−06
Mean Optical Densities (ACHN (Renal Cancer); Log10 Concentration −4.0): 0.313
Mean Optical Densities (ACHN (Renal Cancer); Log10 Concentration −5.0): 0.150
Percent Growth (ACHN (Renal Cancer); Log10 Concentration −5.0): −60%
Mean Optical Densities (ACHN (Renal Cancer); Log10 Concentration −6.0): 0.829
Percent Growth (ACHN (Renal Cancer); Log10 Concentration −6.0): 70%
Mean Optical Densities (ACHN (Renal Cancer); Log10 Concentration −7.0): 1.037
Percent Growth (ACHN (Renal Cancer); Log10 Concentration −7.0): 102%
Mean Optical Densities (ACHN (Renal Cancer); Log10 Concentration −8.0): 0.985
Percent Growth (ACHN (Renal Cancer); Log10 Concentration −8.0): 94%
TGI (DU-145 (Prostate Cancer)): 3.47E−06
Mean Optical Densities (DU-145 (Prostate Cancer); Log10 Concentration −4.0): 0.132
Mean Optical Densities (DU-145 (Prostate Cancer); Log10 Concentration −5.0): 0.078
Percent Growth (DU-145 (Prostate Cancer); Log10 Concentration −5.0): −76%
Mean Optical Densities (DU-145 (Prostate Cancer); Log10 Concentration −6.0): 0.895
Percent Growth (DU-145 (Prostate Cancer); Log10 Concentration −6.0): 90%
Mean Optical Densities (DU-145 (Prostate Cancer); Log10 Concentration −7.0): 1.018
Percent Growth (DU-145 (Prostate Cancer); Log10 Concentration −7.0): 109%
Mean Optical Densities (DU-145 (Prostate Cancer); Log10 Concentration −8.0): 0.993
Percent Growth (DU-145 (Prostate Cancer); Log10 Concentration −8.0): 105%
TGI (A498 (Renal Cancer)): 5.75E−06
Mean Optical Densities (A498 (Renal Cancer); Log10 Concentration −4.0): 0.433
Mean Optical Densities (A498 (Renal Cancer); Log10 Concentration −5.0): 0.660
Percent Growth (A498 (Renal Cancer); Log10 Concentration −5.0): −30%
Mean Optical Densities (A498 (Renal Cancer); Log10 Concentration −6.0): 2.201
Percent Growth (A498 (Renal Cancer); Log10 Concentration −6.0): 95%
Mean Optical Densities (A498 (Renal Cancer); Log10 Concentration −7.0): 2.598
Percent Growth (A498 (Renal Cancer); Log10 Concentration −7.0): 126%
Mean Optical Densities (A498 (Renal Cancer); Log10 Concentration −8.0): 2.230
Percent Growth (A498 (Renal Cancer); Log10 Concentration −8.0): 98%
TGI (786-0 (Renal Cancer)): 2.85E−06
Mean Optical Densities (786-0 (Renal Cancer); Log10 Concentration −4.0): 0.299
Mean Optical Densities (786-0 (Renal Cancer); Log10 Concentration −5.0): 0.181
Percent Growth (786-0 (Renal Cancer); Log10 Concentration −5.0): −72%
Mean Optical Densities (786-0 (Renal Cancer); Log10 Concentration −6.0): 1.440
Percent Growth (786-0 (Renal Cancer); Log10 Concentration −6.0): 60%
Mean Optical Densities (786-0 (Renal Cancer); Log10 Concentration −7.0): 1.897
Percent Growth (786-0 (Renal Cancer); Log10 Concentration −7.0): 95%
Mean Optical Densities (786-0 (Renal Cancer); Log10 Concentration −8.0): 2.012
Percent Growth (786-0 (Renal Cancer); Log10 Concentration −8.0): 104%
TGI (SW-620 (Colon Cancer)): 4.23E−06
Mean Optical Densities (SW-620 (Colon Cancer); Log10 Concentration −4.0): 0.136
Mean Optical Densities (SW-620 (Colon Cancer); Log10 Concentration −5.0): 0.127
Percent Growth (SW-620 (Colon Cancer); Log10 Concentration −5.0): −32%
Mean Optical Densities (SW-620 (Colon Cancer); Log10 Concentration −6.0): 0.736
Percent Growth (SW-620 (Colon Cancer); Log10 Concentration −6.0): 54%
Mean Optical Densities (SW-620 (Colon Cancer); Log10 Concentration −7.0): 1.198
Percent Growth (SW-620 (Colon Cancer); Log10 Concentration −7.0): 100%
Mean Optical Densities (SW-620 (Colon Cancer); Log10 Concentration −8.0): 1.197
Percent Growth (SW-620 (Colon Cancer); Log10 Concentration −8.0): 100%
TGI (UO-31 (Renal Cancer)): 3.29E−06
Mean Optical Densities (UO-31 (Renal Cancer); Log10 Concentration −4.0): 0.285
Mean Optical Densities (UO-31 (Renal Cancer); Log10 Concentration −5.0): 0.161
Percent Growth (UO-31 (Renal Cancer); Log10 Concentration −5.0): −64%
Mean Optical Densities (UO-31 (Renal Cancer); Log10 Concentration −6.0): 1.356
Percent Growth (UO-31 (Renal Cancer); Log10 Concentration −6.0): 68%
Mean Optical Densities (UO-31 (Renal Cancer); Log10 Concentration −7.0): 1.563
Percent Growth (UO-31 (Renal Cancer); Log10 Concentration −7.0): 84%
Mean Optical Densities (UO-31 (Renal Cancer); Log10 Concentration −8.0): 1.572
Percent Growth (UO-31 (Renal Cancer); Log10 Concentration −8.0): 84%
TGI (MOLT-4 (Leukemia)): 3.10E−06
Mean Optical Densities (MOLT-4 (Leukemia); Log10 Concentration −4.0): 0.296
Mean Optical Densities (MOLT-4 (Leukemia); Log10 Concentration −5.0): 0.180
Percent Growth (MOLT-4 (Leukemia); Log10 Concentration −5.0): −42%
Mean Optical Densities (MOLT-4 (Leukemia); Log10 Concentration −6.0): 0.614
Percent Growth (MOLT-4 (Leukemia); Log10 Concentration −6.0): 41%
